Assay results published in the supplement of paper PMC5752671.

Columns and labels:
PL-21 [1] = test: area under dose-response curve (cell viability) (AUC (arbitrary, % viability x log concentration)); higher = less sensitive (more viable); settings: 4 days
Procedure: (§1)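 14 AML cell lines were plated on extracellular-matrix-coated 384-well plates and exposed to each drug at 8 concentrations (4-5 logs within 1e-12 to 1e-4 M, tailored per drug) in duplicate. Viability was read by CellTiter-Glo after 4 days. The dose-response (averaged over duplicates) was fitted to a 4-parameter sigmoid, and the area under the curve was taken as the sensitivity measure.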

MOLM/16 [2] = test: as above; settings: 4 days
Procedure: as §1

OCI-AML3 [3] = test: as above; settings: 4 days
Procedure: as §1

SKM1 [4] = test: as above; settings: 4 days
Procedure: as §1

AML.076 = primary AML patient cells; test: area under dose-response curve (cell viability), primary AML patient cells (AUC (arbitrary, % viability x log concentration; ComBat batch-corrected)); higher = less sensitive (more viable); settings: 4 days; sample type: primary AML patient cells
How it was run: (§2)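 Drug response was scored as area under the fitted curve, with ComBat used to remove batch effects. The curves were four-parameter fits to CellTiter-Glo viability readings taken 4 days after drugs were added, in duplicate, at eight concentrations within 10^–12–10^–4 M. The cells were blast-enriched primary AML samples, thawed with DNase, precultured 48 h in IMDM with horse serum, fetal calf serum and low stem cell factor, and seeded at 5000 cells/well on extracellular-matrix-coated 384-well plates.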

AML.017 = primary AML patient cells; test: as above; settings: 4 days; sample type: primary AML patient cells
How it was run: as §2

NB4 = test: IC50 (cell viability) (log10 M); settings: 4 days
Procedure: (§3)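 14 AML cell lines were treated with 8 drug concentrations in duplicate on ECM-coated 384-well plates, with CellTiter-Glo viability read after 4 days. IC50 is the concentration where the fitted 4-parameter curve crosses 50% viability. For inactive compounds the maximum tested concentration is used as a placeholder.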

U937 = test: IC50 (cell viability) (log10 M); settings: 4 days
Procedure: as §3

KASUMI1 = test: IC50 (cell viability) (log10 M); settings: 4 days
Procedure: as §3

OCI-AML2 = test: IC50 (cell viability) (log10 M); settings: 4 days
Procedure: as §3

MOLM/13 = test: IC50 (cell viability) (log10 M); settings: 4 days
Procedure: as §3

KG1 = test: IC50 (cell viability) (log10 M); settings: 4 days
Procedure: as §3

THP-1 = test: IC50 (cell viability) (log10 M); settings: 4 days
Procedure: as §3

PL-21 [5] = test: IC50 (cell viability) (log10 M); settings: 4 days
Procedure: as §3

MOLM/16 [6] = test: IC50 (cell viability) (log10 M); settings: 4 days
Procedure: as §3

MV4.11 = test: IC50 (cell viability) (log10 M); settings: 4 days
Procedure: as §3

EOL-1 = test: IC50 (cell viability) (log10 M); settings: 4 days
Procedure: as §3

OCI-AML3 [7] = test: IC50 (cell viability) (log10 M); settings: 4 days
Procedure: as §3

SKM1 [8] = test: IC50 (cell viability) (log10 M); settings: 4 days
Procedure: as §3

HL60 = test: IC50 (cell viability) (log10 M); settings: 4 days
Procedure: as §3

SMILES | area under dose-response curve (PL-21 [1]) | area under dose-response curve (MOLM/16 [2]) | area under dose-response curve (OCI-AML3 [3]) | area under dose-response curve (SKM1 [4]) | area under dose-response curve (AML.076) | area under dose-response curve (AML.017) | IC50 (log10 M) (NB4) | IC50 (log10 M) (U937) | IC50 (log10 M) (KASUMI1) | IC50 (log10 M) (OCI-AML2) | IC50 (log10 M) (MOLM/13) | IC50 (log10 M) (KG1) | IC50 (log10 M) (THP-1) | IC50 (log10 M) (PL-21 [5]) | IC50 (log10 M) (MOLM/16 [6]) | IC50 (log10 M) (MV4.11) | IC50 (log10 M) (EOL-1) | IC50 (log10 M) (OCI-AML3 [7]) | IC50 (log10 M) (SKM1 [8]) | IC50 (log10 M) (HL60)
CC(=O)c1c(C)c2cnc(Nc3ccc(N4CCNCC4)cn3)nc2n(C2CCCC2)c1=O | 404 | 511 | 433 | 438 | 574 | 687 | -6.88 | -6.88 | -5.47 | -6.91 | -6.46 | -5.08 | -5.16 | -6.75 | -5.87 | -6.42 | -6.53 | -6.18 | -6.36 | -5.13
CC(C)CC(=O)Nc1n[nH]c2c1CN(C(=O)C1CCN(C)CC1)C2(C)C | 452 | 268 | 281 | 336 | 625 | 685 | – | – | -6.34 | – | -7.75 | -5.76 | -6.18 | -6.5 | – | -7.67 | -7.54 | – | -7.49 | -6.01
CN1CC[C@@H](NC(=O)Nc2ccc(C#N)cc2)C[C@@H]1c1nc2ccccc2[nH]1 | 563 | 587 | 588 | 624 | 678 | ≥ 787 | > -5 | > -5 | > -5 | > -5 | > -5 | > -5 | > -5 | > -5 | > -5 | > -5 | > -5 | > -5 | > -5 | > -5
COc1ccc(-c2cc3c(C)nc(N)nc3n([C@H]3CC[C@H](OCCO)CC3)c2=O)cn1 | 403 | 378 | 402 | 399 | 540 | 522 | -6.21 | -6.9 | -6.97 | -6.58 | -6.61 | -6.3 | -6.67 | -6.89 | -7.12 | -6.94 | -7.09 | -6.89 | -6.77 | -6.45
COc1ccc2c(c1)CCC1C2CCC2(C)C(NCCCCCCN3C(=O)C=CC3=O)CCC12 (centres undefined) | 559 | 632 | 547 | 608 | 614 | 601 | > -5 | -5.89 | -6.38 | > -5 | > -5 | -5.95 | -5.71 | -5.7 | > -5 | -5.56 | -6.09 | -5.91 | -5.73 | -6.4
Cc1cnc(Nc2ccc(OCCN3CCCC3)cc2)nc1Nc1cccc(S(=O)(=O)NC(C)(C)C)c1 | 516 | 392 | 540 | 518 | 635 | 628 | -5.79 | -5.78 | -6.25 | -6.08 | -6.89 | -6.17 | -5.84 | -5.92 | -6.74 | -7.28 | -7.2 | -5.86 | -5.97 | -5.83
NC(=O)c1ccc(-c2nc(-c3ccccn3)c(-c3ccc4c(c3)OCO4)[nH]2)cc1 | 629 | 653 | 712 | 722 | 761 | 689 | > -5 | > -5 | > -5 | > -5 | > -5 | > -5 | > -5 | > -5 | > -5 | > -5 | -5.08 | > -5 | > -5 | > -5
O=C(NC[C@H](O)CO)c1ccncc1Nc1ccc(I)cc1F | 325 | 402 | 150 | 194 | ≥ 611 | 513 | -7.41 | -5.51 | -7.59 | < -8.48 | -5.76 | -7.51 | -6.09 | -7.99 | -6.62 | -6.87 | -7.52 | < -8.48 | < -8.48 | < -8.48
O=C(NOC[C@H](O)CO)c1ccc(F)c(F)c1Nc1ccc(I)cc1F | 218 | 350 | 109 | 83.9 | ≥ 583 | 555 | -7.96 | -5.32 | -7.93 | < -8.34 | -6.01 | -7.31 | -5.4 | < -8.34 | -6.6 | -7.47 | -7.9 | < -8.34 | < -8.34 | < -8.34
O=C1NC(=O)/C(=C\c2ccc3nccnc3c2)S1 | 612 | 618 | 647 | 637 | 643 | 672 | > -5 | > -5 | > -5 | > -5 | > -5 | > -5 | > -5 | > -5 | > -5 | > -5 | > -5 | > -5 | > -5 | > -5
O=C1NC(=O)c2c1c1c3ccccc3n3c1c1c2c2ccccc2n1[C@H]1CC[C@@H]3O1 | 625 | 577 | 649 | 656 | 682 | 614 | > -6 | > -6 | > -6 | > -6 | > -6 | > -6 | > -6 | > -6 | -6.46 | > -6 | -6.45 | > -6 | > -6 | > -6
OCCn1cc(-c2cnc3nnn(Cc4ccc5ncccc5c4)c3n2)cn1 | 559 | 592 | 552 | 616 | 643 | 723 | > -5 | > -5 | > -5 | > -5 | > -5 | > -5 | > -5 | > -5 | > -5 | > -5 | > -5 | > -5 | > -5 | > -5
Nc1ncnc2c1c(I)cn2[C@@H]1O[C@H](CO)[C@@H](O)[C@H]1O [5-Iodotubercidin] | 497 | 403 | 571 | 559 | 462 | 505 | -5.89 | -6.12 | -6.1 | -5.94 | -6.69 | -6.38 | -5.86 | -5.95 | -6.88 | -8.32 | -6.7 | -5.95 | -5.99 | -6.11
COc1cc2c(Oc3ccc4[nH]c(C)cc4c3F)ncnc2cc1OCCCN1CCCC1 [AZD2171] | 646 | 686 | 687 | 640 | 720 | 668 | > -5 | > -5 | > -5 | > -5 | > -5 | – | > -5 | > -5 | > -5 | > -5 | -6.47 | > -5 | > -5 | > -5
NC(=O)Nc1cc(-c2cccc(F)c2)sc1C(=O)N[C@H]1CCCNC1 [AZD7762] | 357 | 387 | 415 | 271 | 519 | 428 | -7.74 | -7.84 | -7.28 | -7.93 | < -8.48 | -6.83 | -7.65 | -7.69 | -7.3 | < -8.48 | < -8.48 | -7.08 | – | -6.87
C=C(c1ccc(C(=O)O)cc1)c1cc2c(cc1C)C(C)(C)CCC2(C)C [Bexarotene] | 589 | 671 | 550 | 469 | 684 | 695 | > -5 | > -5 | > -5 | > -5 | > -5 | > -5 | > -5 | > -5 | > -5 | – | -5.94 | > -5 | > -5 | > -5
Oc1cccc(-c2nc(N3CCOCC3)c3oc4ncccc4c3n2)c1 [PI-103] | 305 | 285 | 442 | 463 | 559 | 621 | -5.51 | -6.89 | -6.95 | -6.15 | -6.02 | -5.82 | -6.15 | -5.33 | – | -6.42 | -6.88 | -6.57 | -6.33 | -6.37
CN(C)C1CCN(C(=O)c2ccc(NC(=O)Nc3ccc(-c4nc(N5CCOCC5)nc(N5CCOCC5)n4)cc3)cc2)CC1 [PKI-587] | 374 | 429 | 248 | 372 | 491 | 479 | -6.65 | < -8.34 | -6.27 | -7.38 | -7.6 | -5.83 | -6.85 | -7.52 | -6.61 | -7.54 | -7.97 | – | -7.5 | -6.61
NC(=O)Nc1sc(-c2ccc(F)cc2)cc1C(N)=O [TPCA-1] | 585 | 481 | 656 | 638 | 679 | 626 | -5.05 | -5.73 | -5.74 | -5.45 | -5.52 | -5.87 | – | -5.46 | -6.29 | -5.67 | -6.14 | -5.43 | -5.51 | -5.45
C=CCNC1=C2C[C@@H](C)C[C@H](OC)[C@H](O)[C@@H](C)/C=C(\C)[C@H](OC(N)=O)[C@@H](OC)/C=C\C=C(/C)C(=O)NC(=CC1=O)C2=O [Tanespimycin] | 475 | 278 | 484 | 404 | 484 | 561 | -7.5 | -6.46 | -6.43 | -7.81 | -7.55 | -5.84 | -6.24 | -6.55 | – | -8.16 | -7.03 | -6.64 | -7 | -5.97
Nc1nc2[nH]cnc2c(=S)[nH]1 [Thioguanine] | – | – | – | – | 716 | 749 | -5.8 | -5.09 | -5.09 | -5.95 | -5.97 | -5.12 | -6.09 | -5.37 | -5.43 | -5.79 | -6.18 | -6.03 | -5.34 | -5.12
